Type in all cases: cell-based
In assay [1] the test system is Wnt activity (Sp5-Luc reporter, Wnt-responsive promoter) in SW480 colon carcinoma cells. Briefly: Wnt activity screening assay: Sp5-Luc reporter gene assay in SW480 cells. The following applies: Homo sapiens; for EC50: overnight incubation, 10-point curve starting from 10 μM; for inhibition at 10 µM: read-out: percent inhibition at 10 μM (given for EC50 of >10 μM). Put shortly:
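Luminescence read-out (BrightGlo) from stable Sp5-Luc SW480 cells, normalized to DMSO-only wells. Cells were treated overnight at 37° C in 1% FBS medium across a 1:3, 10-point series starting at 10 μM. EC50 from variable-slope four-parameter regression; percent inhibition at 10 μM given where EC50 >10 μM.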
Background: Reporter assays use an easily measured gene product as a stand-in for the process of interest.

For another assay, the system named is SW480 colon cancer cells. Briefly: Cell viability assay (CellTiter-Blue) in SW480 cells. The following applies: Homo sapiens, 96 h, four days; for EC50: CellTiter-Blue, 10 μM to 0.0045 μM; for inhibition at 10 µM: read-out: percent inhibition at 10 μM (given for EC50 of >10 μM). Put shortly: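 Four-day viability readout in SW480 cells: compound at 0.0045–10 μM (1:3 series), DMSO controls in eight replicates, CellTiter-Blue fluorescence after ~3 h. Values are regression-derived EC50s, or percent inhibition at 10 μM when EC50 exceeds 10 μM.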

In assay [2] the test system is primary human fibroblasts derived from IPF patients (LL29 cells) treated with TGF-β1. Briefly: Inhibition of the fibrotic process: αSMA staining in TGF-β1-treated LL29 fibroblasts. The following applies: Fibroblast; for EC50: 96 h, LL29 fibroblasts treated with TGF-β1 (20 ng/mL), 4 days, Table 4; for inhibition at 10 µM: LL29 fibroblasts treated with TGF-β1, Table 4, read-out: percent inhibition at 10 μM (given in parentheses for EC50 >10 μM). The method, boiled down:
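EC50 from triplicate-well dose-response fits of % αSMA-positive cells, normalized to TGF-β1-stimulated DMSO controls, with SYTOX-positive dead cells excluded. LL29 IPF fibroblasts received compound at 10 μM–1.87 nM (0.1% DMSO) plus 20 ng/mL TGF-β1 for 4 days in 1% FBS medium; above 10 μM, % inhibition at 10 μM reported.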

A value given as a limit tells only on which side of the number the result lay.

What is called EC50 is the concentration that produces a half-maximal response. As to `Cc1ncc(-c2ccc3[nH]nc(-c4nc5c(-c6ccoc6)cccc5[nH]4)c3n2)n1C` [Compound 685, 5-(1,2-Dimethyl-1H-imidazol-5-yl)-3-(4-(furan-3-yl)-1H-benzo[d]imidazol-2-yl)-1H-pyrazolo[4,3-b]pyridine], the EC50 in assay [1] was 257 nM; with SW480 colon cancer cells, 635 nM; in assay [2], 5040 nM.

Usually inhibition stands for the relative decrease from the control value, in per cent. Take `CS(=O)(=O)NCc1cc(F)cc(-c2cccc3[nH]c(-c4n[nH]c5ccc(-c6cncc(NC(=O)CC7CCNCC7)c6)nc45)nc23)c1` [Compound 769, N-(5-(3-(4-(3-Fluoro-5-(methylsulfonamidomethyl)phenyl)-1H-benzo[d]imidazol-2-yl)-1H-pyrazolo[4,3-b]pyridin-5-yl)pyridin-3-yl)-2-(piperidin-4-yl)acetamide]: the figures for the inhibition at 10 µM (in assay [1]; with SW480 colon cancer cells) were 12.3% and 0%, respectively. Moreover, the EC50 in assay [1] is > 10000 nM; with SW480 colon cancer cells, > 10000 nM; in assay [2] it was 3250 nM.

Consider `c1cc(-c2ccc3c(c2)OCO3)c2nc(-c3n[nH]c4ccc(C5CCNCC5)nc34)[nH]c2c1` [Compound 1108, 3-(4-(Benzo[d][1,3]dioxol-5-yl)-1H-benzo[d]imidazol-2-yl)-5-(piperidin-4-yl)-1H-pyrazolo[4,3-b]pyridine], for which the figures for the EC50 (in assay [1]; with SW480 colon cancer cells; in assay [2]) were 3520 nM, 2280 nM and > 10000 nM, respectively. In assay [2], the inhibition at 10 µM stood at 14.1%.

With `Cc1ccc(-c2cccc3[nH]c(-c4n[nH]c5ccc(C6=CCNCC6)nc45)nc23)s1` [Compound 730, 3-(4-(5-Methylthiophen-2-yl)-1H-benzo[d]imidazol-2-yl)-5-(1,2,3,6-tetrahydropyridin-4-yl)-1H-pyrazolo[4,3-b]pyridine], the EC50 in assay [1] stood at 1010 nM; in the assay with SW480 colon cancer cells, 642 nM; in assay [2], 1340 nM.

For the compound `COc1cccc(-c2cccc3[nH]c(-c4n[nH]c5ccc(-c6cn[nH]c6)nc45)nc23)c1` [Compound 1020, 3-(4-(3-Methoxyphenyl)-1H-benzo[d]imidazol-2-yl)-5-(1H-pyrazol-4-yl)-1H-pyrazolo[4,3-b]pyridine], the values for the inhibition at 10 µM (in assay [1]; in the assay with SW480 colon cancer cells) were 18.9% and 12.6%, respectively. Besides, the EC50 in assay [1] was > 10000 nM; in the assay with SW480 colon cancer cells, > 10000 nM; in assay [2] it was 372 nM.

For the compound `CC(C)(C)C(=O)Nc1cncc(-c2ccc3[nH]nc(-c4nc5c(-c6ccc(F)cc6)cccc5[nH]4)c3n2)c1` [Compound 36, N-(5-(3-(4-(4-Fluorophenyl)-1H-benzo[d]imidazol-2-yl)-1H-pyrazolo[4,3-b]pyridin-5-yl)pyridin-3-yl)pivalamide], the EC50 in assay [1] was 3010 nM; in the assay with SW480 colon cancer cells, 8480 nM; in assay [2], > 10000 nM. Further, the inhibition at 10 µM in assay [2] was 33.6%.

For `Cc1ccc(-c2cccc3[nH]c(-c4n[nH]c5ccc(-c6cncc(OC7CCCCC7)c6)nc45)nc23)s1` [Compound 735, 5-(5-(Cyclohexyloxy)pyridin-3-yl)-3-(4-(5-methylthiophen-2-yl)-1H-benzo [d]imidazol-2-yl)-1H-pyrazolo[4,3-b]pyridine], the EC50 in assay [1] is 3810 nM; in the assay with SW480 colon cancer cells, > 10000 nM; in assay [2], 1130 nM. Also, the inhibition at 10 µM in the assay with SW480 colon cancer cells is 32.3%.

As to `O=C(CC1CCNCC1)Nc1cncc(-c2ccc3[nH]nc(-c4nc5c(-c6ccsc6)cccc5[nH]4)c3n2)c1` [Compound 673, 2-(Piperidin-4-yl)-N-(5-(3-(4-(thiophen-3-yl)-1H-benzo[d]imidazol-2-yl)-1H-pyrazolo[4,3-b]pyridin-5-yl)pyridin-3-yl)acetamide], the inhibition at 10 µM came out at 14.9% in assay [1] and 4.3% with SW480 colon cancer cells. Also, the EC50 in assay [1] was > 10000 nM; in the assay on SW480 colon cancer cells, > 10000 nM; in assay [2], 2780 nM.

Take `CC(C)C(=O)Nc1cncc(-c2ccc3[nH]nc(-c4nc5c(N6CCN(C)CC6)cccc5[nH]4)c3n2)c1` [Compound 233, N-(5-(3-(4-(4-Methylpiperazin-1-yl)-1H-benzo[d]imidazol-2-yl)-1H-pyrazolo[4,3-b]pyridin-5-yl)pyridin-3-yl)isobutyramide]: the figures for the inhibition at 10 µM (in assay [1]; in the assay on SW480 colon cancer cells; in assay [2]) were 7.3%, 6.4% and 24.7%, respectively. For the same compound, the EC50 (in assay [1]; in the assay with SW480 colon cancer cells; in assay [2]) was > 10000 nM throughout.

Take `CN(C)Cc1cncc(-c2ccc3[nH]nc(-c4nc5c(N6CCCCC6)cccc5[nH]4)c3n2)c1` [Compound 181, N,N-dimethyl-1-(5-(3-(4-(piperidin-1-yl)-1H-benzo[d]imidazol-2-yl)-1H-pyrazolo[4,3-b]pyridin-5-yl)pyridin-3-yl)methanamine]: the EC50 came out at 1890 nM in assay [1], 1140 nM with SW480 colon cancer cells and 785 nM in assay [2].

Take `Fc1ccccc1-c1cccc2[nH]c(-c3n[nH]c4ccc(-c5cncc(CNCC6CCCC6)c5)nc34)nc12` [Compound 81, 1-Cyclopentyl-N-((5-(3-(4-(2-fluorophenyl)-1H-benzo[d]imidazol-2-yl)-1H-pyrazolo[4,3-b]pyridin-5-yl)pyridin-3-yl)methyl)methanamine]: the EC50 is 1140 nM in assay [1], 1140 nM with SW480 colon cancer cells and 627 nM in assay [2].

Turning to `Cc1ccc(-c2cccc3[nH]c(-c4n[nH]c5ccc(-c6cncc(NC(=O)C7CCCC7)c6)nc45)nc23)s1` [Compound 414, N-(5-(3-(4-(5-Methylthiophen-2-yl)-1H-benzo[d]imidazol-2-yl)-1H-pyrazolo [4,3-b]pyridin-5-yl)pyridin-3-yl)cyclopentanecarboxamide], the inhibition at 10 µM was 7.2% in assay [1], 0% with SW480 colon cancer cells and 42.2% in assay [2]. Moreover, the EC50 (in assay [1]; in the assay with SW480 colon cancer cells; in assay [2]) was > 10000 nM throughout.

With `O=C(Nc1cncc(-c2ccc3[nH]nc(-c4nc5c(-c6ccncc6)cccc5[nH]4)c3n2)c1)C1CCCCC1` [Compound 135, N-(5-(3-(4-(pyridin-4-yl)-1H-benzo[d]imidazol-2-yl)-1H-pyrazolo[4,3-b]pyridin-5-yl)pyridin-3-yl)cyclohexanecarboxamide], the inhibition at 10 µM in assay [1] was 5.4%; in the assay on SW480 colon cancer cells, 1%; in assay [2], 0%. Further, the EC50 (in assay [1]; in the assay with SW480 colon cancer cells; in assay [2]) was > 10000 nM throughout.

`CC(C)Nc1cncc(-c2ccc3[nH]nc(-c4nc5c(-c6cccnc6)cccc5[nH]4)c3n2)c1` [Compound 96, N-Isopropyl-5-(3-(4-(pyridin-3-yl)-1H-benzo[d]imidazol-2-yl)-1H-pyrazolo [4,3-b]pyridin-5-yl)pyridin-3-amine]: the results for the EC50 (in assay [1]; in the assay on SW480 colon cancer cells; in assay [2]) were 2540 nM, 8950 nM and 1210 nM, respectively.

As to `CN(C)CCNc1cc(F)cc(-c2cccc3[nH]c(-c4n[nH]c5ccc(-c6cncc(OCc7ccccc7)c6)nc45)nc23)c1` [Compound 790, N^1-(3-(2-(5-(5-(Benzyloxy)pyridin-3-yl)-1H-pyrazolo[4,3-b]pyridin-3-yl)-1H-benzo[d]imidazol-4-yl)-5-fluorophenyl)-N^2,N^2-dimethylethane-1,2-diamine], the EC50 in assay [1] was found to be 1120 nM; in the assay with SW480 colon cancer cells, 722 nM; in assay [2], 798 nM.

On to `c1cc(-c2ccoc2)c2nc(-c3n[nH]c4ccc(-c5cncc(OCCN6CCCC6)c5)nc34)[nH]c2c1` [Compound 690, 3-(4-(Furan-3-yl)-1H-benzo[d]imidazol-2-yl)-5-(5-(2-(pyrrolidin-1-yl)ethoxy)pyridin-3-yl)-1H-pyrazolo[4,3-b]pyridine], for which the EC50 worked out at 4220 nM in assay [1], 3860 nM in the assay with SW480 colon cancer cells and 2440 nM in assay [2].

As to `O=C(Nc1cncc(-c2ccc3[nH]nc(-c4nc5c(-c6ccccn6)cccc5[nH]4)c3n2)c1)c1ccccc1` [Compound 151, N-(5-(3-(4-(Pyridin-2-yl)-1H-benzo[d]imidazol-2-yl)-1H-pyrazolo[4,3-b]pyridin-5-yl)pyridin-3-yl)benzamide], the values for the inhibition at 10 µM (in assay [1]; with SW480 colon cancer cells) were 34.2% and 20.8%, respectively. Further, the results for the EC50 (in assay [1]; with SW480 colon cancer cells; in assay [2]) were > 10000 nM, > 10000 nM and 5110 nM, respectively.

As to `COc1cncc(-c2ccc3[nH]nc(-c4nc5c(-c6ccoc6)cccc5[nH]4)c3n2)c1` [Compound 692, 3-(4-(Furan-3-yl)-1H-benzo[d]imidazol-2-yl)-5-(5-methoxypyridin-3-yl)-1H-pyrazolo[4,3-b]pyridine], the EC50 in assay [1] amounted to 1370 nM; in the assay on SW480 colon cancer cells it was 2100 nM; in assay [2] it was 1410 nM.

The values are drawn from patent publication US10392383B2, “3-(1H-benzo[d]imidazol-2-yl)-1H-pyrazolo[4,3-b]pyridines and therapeutic uses thereof” (Samumed, LLC, priority 2015, dated 2019).
